Consider seven compounds from US7507739B2, “6-[(substituted)phenyl]triazolopyrimidines as anticancer agents” (Wyeth, priority 2003, dated 2009).

Each structure is given as a SMILES string. Marks after values point to notes of the source that are not given here.

Series [1] deals with DLD1 Human Colon Carcinoma. The series is described as follows: Human tumor xenograft test, DLD1. The class given is in vivo. To be noted: days 1, 5, 9, 13. On the procedure:
(§1) The ability of compounds of this invention to inhibit tumor growth in animals is studied in the athymic mouse xenograft standard pharmacological test. Female nu/nu mice in an outbred albino background are obtained from Charles River Laboratories (Wilmington, Mass.). Animals are injected subcutaneously on the flank with the desired tumor cell suspension. Several days later, mice with tumors of approximately 150 mm^3 are selected from those injected (staged) and randomly distributed into groups of 5-10. The day of staging is called day 0. Compounds of the invention, usually formulated in saline (exceptions are noted in tables), are administered to animals by intravenous injection or oral gavage on various schedules starting on day 0 or 1, as noted in the tables. The control group in each experiment is dosed with vehicle on the same schedule. Tumor size is measured every 3-7 days with calipers in two orthogonal dimensions, and tumor volume is calculated from the formula volume=[(length×width^2)/2].
(§2) Tumor/Control (T/C) is obtained by dividing the mean tumor volume of the treated group by the mean tumor volume of the control group on each measurement day. A treatment dose is defined as active if it produced a statistically significant T/C of 0.50 or less. A p value≦0.05, determined by one-side Student's t-test, is required for statistical significance. A treatment dose is defined as toxic if more than 10% of the animals died from a compound-related toxicity.

Another series relates to LOX Human Melanoma. The series is described as follows: Human tumor xenograft test, LOX. Format: in vivo, athymic mice. As to conditions: for tumor growth inhibition (activity call): LOX melanoma; for T/C on day 0 / T/C on day 7 / T/C on day 13: LOX, days 1, 5, 9, 13. Here is the method: as §1, §2
The next series relates to MAP-rich tubulin. The series is described as follows: Tubulin polymerization test with MAP-rich tubulin. The class given is biochemical, bovine. As to conditions: 0.3 μM compound, 20 min, fold enhancement over control. The method in brief: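 Bovine brain MAP-rich tubulin (1.3 mg/mL) in PEM buffer pH 6.9 with 1 mM GTP, compounds at 0.3 μM final (0.3% DMSO), 24° for 60 min. Turbidity read at 340 nm each minute, baseline-subtracted; mean A340 at 20 min divided by solvent control gives fold enhancement.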

Where [2] appears, read: 1 mg/kg intravenously on days 1, 5, 9, and 13.
The mark [3] stands for this setting: 6 and 3 mg/kg intravenously on days 1, 5, 9, and 13.

`C[C@H](Nc1c(-c2c(F)cc(OCCCN(C)C)cc2F)c(Cl)nc2ncnn12)C(F)(F)F.Cl` [Example 1a, 5-chloro-6-{4-[3-(dimethylamino)propoxy]-2,6-difluorophenyl}-N-[(1S)-2,2,2-trifluoro-1-methylethyl][1,2,4]triazolo[1,5-a]pyrimidin-7-amine hydrogen chloride Salt]: the “T/C on day 0” value in series [1] (DLD1, 10 mg/kg IV) is on record as 1.00; in series [1] (DLD1, 15 mg/kg IV), 1.00; in series [1] (DLD1, 20 mg/kg IV) it was 1.00; in the series with LOX Human Melanoma (1 mg/kg IV), 1.00; in the series on LOX Human Melanoma (3 mg/kg IV), 1.00; in the series with LOX Human Melanoma (6 mg/kg IV) it was 1.00. The “T/C on day 7” value in series [1] (DLD1, 10 mg/kg IV) is listed as 0.63; in series [1] (DLD1, 15 mg/kg IV), 0.21**; in series [1] (DLD1, 20 mg/kg IV), 0.31**; in the series on LOX Human Melanoma (1 mg/kg IV) it was 0.80; in the series on LOX Human Melanoma (3 mg/kg IV) it was 0.13**; with LOX Human Melanoma (6 mg/kg IV), 0.12**. The “T/C on day 14” value stood at 0.51 in series [1] (DLD1, 10 mg/kg IV) and 0.25 in series [1] (DLD1, 15 mg/kg IV). Further, the “T/C on day 21” value is given as 0.58 in series [1] (DLD1, 10 mg/kg IV) and 0.31 in series [1] (DLD1, 15 mg/kg IV). Besides, the “toxicity of treatment dose” value in series [1] (DLD1 xenograft mice, 20 mg/kg IV, day 14) is recorded as “Toxic”. In addition, the “tumor growth inhibition (activity call)” value with LOX Human Melanoma (setting [2]) is “not at 1 mg/kg”; with LOX Human Melanoma (setting [3]), “active”. For the same compound, the entries for the “T/C on day 13” value in the series on LOX Human Melanoma (1 mg/kg IV), in the series on LOX Human Melanoma (3 mg/kg IV) and in the series on LOX Human Melanoma (6 mg/kg IV) were 1.02, 0.17* and 0.07**, respectively. Further, the “A340 Compound/A340 Control” value with MAP-rich tubulin turned out to be 6.1.
For the compound `CNCCCOc1cc(F)c(-c2c(Cl)nc3ncnn3c2N[C@@H](C)C(F)(F)F)c(F)c1.Cl` [Example 2a, 5-Chloro-6-{2,6-difluoro-4-[3-(methylamino)propoxy]phenyl}-N-[(1S)-2,2,2-trifluoro-1-methylethyl][1,2,4]triazolo[1,5-a]pyrimidin-7-amine hydrogen chloride], the “T/C on day 0” value was determined as 1.00 in series [1] (DLD1, 10 mg/kg IV); 1.00 in series [1] (DLD1, 15 mg/kg IV); 1.00 in series [1] (DLD1, 20 mg/kg IV); 1.00 in the series with LOX Human Melanoma (1 mg/kg IV); 1.00 in the series on LOX Human Melanoma (3 mg/kg IV); 1.00 in the series with LOX Human Melanoma (6 mg/kg IV). Further, the “T/C on day 7” value in series [1] (DLD1, 10 mg/kg IV) is 0.66; in series [1] (DLD1, 15 mg/kg IV) it was 0.59; in series [1] (DLD1, 20 mg/kg IV), 0.46*; with LOX Human Melanoma (1 mg/kg IV) it was 0.81; in the series on LOX Human Melanoma (3 mg/kg IV), 0.31**; in the series on LOX Human Melanoma (6 mg/kg IV) it was 0.17**. Also, the “T/C on day 14” value in series [1] (DLD1, 10 mg/kg IV) is on record as 0.65; in series [1] (DLD1, 15 mg/kg IV) it was 0.54; in series [1] (DLD1, 20 mg/kg IV) it was 0.33. The “T/C on day 21” value is given as 0.72 in series [1] (DLD1, 10 mg/kg IV); 0.74 in series [1] (DLD1, 15 mg/kg IV); 0.53 in series [1] (DLD1, 20 mg/kg IV). Moreover, the “tumor growth inhibition (activity call)” value is given as “not at 1 mg/kg” in the series with LOX Human Melanoma (setting [2]) and “active” in the series on LOX Human Melanoma (setting [3]). Further, the “T/C on day 13” value in the series on LOX Human Melanoma (1 mg/kg IV) is recorded as 0.95; in the series on LOX Human Melanoma (3 mg/kg IV), 0.36; in the series with LOX Human Melanoma (6 mg/kg IV) it was 0.12**.
As to `CNCCCOc1cc(F)c(-c2c(Cl)nc3ncnn3c2NCC(F)(F)F)c(F)c1.Cl` [Example 3a, 5-Chloro-6-{2,6-difluoro-4-[3-(methylamino)propoxy]phenyl}-N-(2,2,2-trifluoroethyl)[1,2,4]triazolo[1,5-a]pyrimidin-7-amine hydrogen chloride Salt], the “T/C on day 0” value was 1.00 in series [1] (DLD1, 10 mg/kg IV); 1.00 in series [1] (DLD1, 20 mg/kg IV); 1.00 in series [1] (DLD1, 25 mg/kg IV); 1.00 in the series on LOX Human Melanoma (1 mg/kg IV); 1.00 with LOX Human Melanoma (3 mg/kg IV); 1.00 in the series on LOX Human Melanoma (6 mg/kg IV). Further, the “T/C on day 7” value is 0.77 in series [1] (DLD1, 10 mg/kg IV); 0.55 in series [1] (DLD1, 20 mg/kg IV); 0.59 in series [1] (DLD1, 25 mg/kg IV); 0.77 with LOX Human Melanoma (1 mg/kg IV); 0.34* with LOX Human Melanoma (3 mg/kg IV); 0.22** with LOX Human Melanoma (6 mg/kg IV). The “T/C on day 14” value in series [1] (DLD1, 10 mg/kg IV) is 0.75; in series [1] (DLD1, 20 mg/kg IV) it was 0.56; in series [1] (DLD1, 25 mg/kg IV) it was 0.46. Moreover, the “T/C on day 21” value is given as 0.84 in series [1] (DLD1, 10 mg/kg IV); 0.73 in series [1] (DLD1, 20 mg/kg IV); 0.60 in series [1] (DLD1, 25 mg/kg IV). Besides, the “tumor growth inhibition (activity call)” value with LOX Human Melanoma (setting [2]) is on record as “not at 1 mg/kg”; with LOX Human Melanoma (setting [3]), “active”. Besides, the “T/C on day 13” value with LOX Human Melanoma (1 mg/kg IV) is 0.85; in the series on LOX Human Melanoma (3 mg/kg IV), 0.38; with LOX Human Melanoma (6 mg/kg IV), 0.07**.
For `CN(C)CCCOc1cc(F)c(-c2c(Cl)nc3ncnn3c2NCC(F)(F)F)c(F)c1.Cl` [Example 4a, 5-Chloro-6-{4-[3-(dimethylamino)propoxy]-2,6-difluorophenyl}-N-(2,2,2-trifluoroethyl)[1,2,4]triazolo[1,5-a]pyrimidin-7-amine Hydrogen chloride Salt], the “T/C on day 0” value in series [1] (DLD1, 10 mg/kg IV) is given as 1.00; in series [1] (DLD1, 20 mg/kg IV), 1.00; in series [1] (DLD1, 25 mg/kg IV), 1.00; with LOX Human Melanoma (1 mg/kg IV), 1.00; in the series on LOX Human Melanoma (3 mg/kg IV) it was 1.00; with LOX Human Melanoma (6 mg/kg IV), 1.00. Further, the “T/C on day 7” value is on record as 0.56 in series [1] (DLD1, 10 mg/kg IV); 0.55 in series [1] (DLD1, 20 mg/kg IV); 0.63 in series [1] (DLD1, 25 mg/kg IV); 0.80 in the series on LOX Human Melanoma (1 mg/kg IV); 0.20** with LOX Human Melanoma (3 mg/kg IV); 0.21** with LOX Human Melanoma (6 mg/kg IV). Besides, the “T/C on day 14” value in series [1] (DLD1, 10 mg/kg IV) amounted to 0.68; in series [1] (DLD1, 20 mg/kg IV), 0.44; in series [1] (DLD1, 25 mg/kg IV), 0.49. The “T/C on day 21” value was determined as 0.74 in series [1] (DLD1, 10 mg/kg IV); 0.61 in series [1] (DLD1, 20 mg/kg IV); 0.48 in series [1] (DLD1, 25 mg/kg IV). The results for the “tumor growth inhibition (activity call)” value in the series on LOX Human Melanoma (setting [2]) and in the series on LOX Human Melanoma (setting [3]) were “not at 1 mg/kg” and “active”, respectively. In addition, the “T/C on day 13” value is reported as 0.79 in the series on LOX Human Melanoma (1 mg/kg IV), 0.19** with LOX Human Melanoma (3 mg/kg IV) and 0.14** in the series with LOX Human Melanoma (6 mg/kg IV). The “A340 Compound/A340 Control” value with MAP-rich tubulin was 8.1.
As to `C[C@H](Nc1c(-c2c(F)cc(OCCCN(C)C)cc2F)c(Br)nc2ncnn12)C(F)(F)F` [Example 25, 5-Bromo-6-{4-[3-(dimethylamino)propoxy]-2,6-difluorophenyl}-N-[(1S)-2,2,2-trifluoro-1-methylethyl][1,2,4]triazolo[1,5-a]pyrimidin-7-amine], the “A340 Compound/A340 Control” value with MAP-rich tubulin amounted to 7.2.
The same measure, in the same setting: in the case of `CC(=O)O[C@H]1C(=O)[C@@]2(C)[C@H]([C@H](OC(=O)c3ccccc3)[C@]3(O)C[C@H](OC(=O)[C@H](O)[C@@H](NC(=O)c4ccccc4)c4ccccc4)C(C)=C1C3(C)C)[C@]1(OC(C)=O)CO[C@@H]1C[C@@H]2O` [Paclitaxel, reference compound] it was 8.5; in that of `CC[C@]1(O)C[C@H]2CN(CCc3c([nH]c4ccccc34)[C@@](C(=O)OC)(c3cc4c(cc3OC)N(C=O)[C@H]3[C@@](O)(C(=O)OC)[C@H](OC(C)=O)[C@]5(CC)C=CCN6CC[C@]43[C@@H]65)C2)C1` [Vincristine, reference compound], 0.
